Measurements as given in patent publication US9073918B2, “Pyrazolo[4,3-b]pyridine-7-amine inhibitors of ALK5” (Takeda Pharmaceutical Company Limited, priority 2010, dated 2015).

How the values were obtained:
[1] = molecular target: T1, TGF-β R1 ALK5 (Homo sapiens, UniProt P36897); assay: In vitro inhibition of ALK5 (LanthaScreen activity assay, TR-FRET); type: biochemical
T1 construct: purchased Invitrogen PV5837
T1 sequence (P36897 34-503): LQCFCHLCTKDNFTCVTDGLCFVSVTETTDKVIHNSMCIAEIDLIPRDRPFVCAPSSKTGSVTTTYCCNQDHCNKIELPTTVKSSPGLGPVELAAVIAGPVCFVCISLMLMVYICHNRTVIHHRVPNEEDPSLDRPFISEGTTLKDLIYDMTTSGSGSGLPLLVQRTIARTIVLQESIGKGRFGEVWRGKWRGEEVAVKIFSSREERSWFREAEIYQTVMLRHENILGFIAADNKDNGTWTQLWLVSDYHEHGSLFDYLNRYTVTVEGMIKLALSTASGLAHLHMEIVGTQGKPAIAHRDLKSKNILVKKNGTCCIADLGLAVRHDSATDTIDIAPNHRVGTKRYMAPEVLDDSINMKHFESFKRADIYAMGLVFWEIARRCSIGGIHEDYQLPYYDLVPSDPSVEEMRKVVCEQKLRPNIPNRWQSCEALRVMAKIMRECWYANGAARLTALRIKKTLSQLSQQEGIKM

[2] = molecular target: T2, cellular TGF-β R1 ALK5 (Homo sapiens, UniProt P36897); assay: Cellular inhibition of ALK5 (CellSensor SBE-bla HEK 293T beta-lactamase reporter); type: cell-based; conditions: cellular inhibition of ALK5, SBE-bla HEK 293T cells, TGFb-1 stimulated 5 hours; average where measured in multiple experiments
T2 construct: host or cells: CellSensor SBE-bla HEK 293T
T2 sequence (P36897 34-503): T1 sequence (P36897 34-503)
From the text: Test compounds were screened for cellular TGF-β R1 ALK5 inhibition by use of a CellSensor® SBE-bla HEK 293T (K1550, Invitrogen Corp. Madison, Wis.) cell line. The CellSensor® SBE-bla HEK 293T cell line contains a beta-lactamase reporter gene under control of the SBE response element stably integrated into HEK 293T cells. The SBE response element is a DNA region that binds activated SMADs which results from the binding of TGF-β to, and subsequent activation of ALK5.
The assay procedure was as follows:
CellSensor® SBE-bla HEK 293T cell line were plated at 12,000 cells/well in 40 ul DMEM plus 5 ug/ml blasticidin into 384-well, black-wall, clear-bottom assay plate and incubated overnight.
The following day 5 uL of 10×, 2.5-fold serially diluted test compounds in DMSO were added into cells to a final compound concentration of 1× and DMSO concentration of 0.5%. Assay was incubated for 1 hour at 37° C., 5% CO2, 5 uL of 100 ng/mL TGFb-1 was then added to activate ALK5 and incubated for 5 hours at 37° C., 5% CO2, 10 uL of detector, LiveBLAzer FRET B/G substrate (CCF4-AM, Invitrogen Corp. Madison, Wis.) was added to cells and incubated for 2 hours at RT. Assay was measured using Spectramax, a bottom-read fluorescence plate reader, at excitation setting of 405 nm and emission settings of 460 nm and 530 nm.
Response is defined as the ratio of background corrected 460 nm emission values/background corrected 530 nm emission values. Cellular activity was defined as percent inhibition of uninhibited ALK5 activity (wells treated with DMSO+TGF-β). The percent inhibition of cellular ALK5 at a given compound concentration is defined as: 100%×[1−(response compound+TGF-β/response DMSO+TGF-β)] where response compound+TGF-β is defined as the activity in the presence of test compound and response DMSO+TGF-β is defined as the uninhibited cellular ALK5 activity. The pIC50 value (negative log of the molar concentration of the compound that produces 50% inhibition) of a test compound is calculated by non-linear least squares curve fitting. pIC50 values, the negative of the log of the IC50, are calculated by non-linear curve fitting of the compound concentrations and percent of inhibition to the standard pIC50 equation.
Where inhibition was measured in multiple experiments the value in Table 2 is an average. N.T. means not tested.

Structure (SMILES) | IC50 [1] [nM] | IC50 [2] [nM]
CCNC(=O)n1ncc2nccc(Nc3nc(-c4cc(F)ccc4F)nc(C)c3C)c21 [Example 92, 7-(2-(2,5-difluorophenyl)-5,6-dimethylpyrimidin-4-ylamino)-N-ethyl-1H-pyrazolo[4,3-b]pyridine-1-carboxamide] | 79.4 | 501
Fc1ccc(Cl)cc1-c1cc(Nc2ccnc3cn[nH]c23)ccn1 [Example 17, N-(2-(5-chloro-2-fluorophenyl)pyridin-4-yl)-1H-pyrazolo[4,3-b]pyridin-7-amine] | 5.01 | 50.1
Cc1ccc(F)c(-c2cc(Nc3ccnc4cnn([C@H]5CCOC5)c34)c(C)cn2)n1 [Example 141, (S)—N-(3′-fluoro-5,6′-dimethyl-2,2′-bipyridin-4-yl)-1-(tetrahydrofuran-3-yl)-1H-pyrazolo[4,3-b]pyridin-7-amine] | 25.1 | 158
CNC(=O)n1ncc2nccc(Nc3ccnc(-c4cc(F)ccc4F)c3)c21 [Example 94, 7-(2-(2,5-difluorophenyl)pyridin-4-ylamino)-N-methyl-1H-pyrazolo[4,3-b]pyridine-1-carboxamide] | 2 | 20
NC(=O)Cn1ncc2nccc(Nc3ccnc(-c4cc(F)ccc4F)c3)c21 [Example 86, 2-(7-(2-(2,5-difluorophenyl)pyridin-4-ylamino)-1H-pyrazolo[4,3-b]pyridin-1-yl)acetamide] | 50.1 | 158
Cc1ccc(F)c(-c2cc(Nc3ccnc4cn(C(C)C)nc34)ccn2)n1 [Example 68, N-(3′-fluoro-6′-methyl-2,2′-bipyridin-4-yl)-2-isopropyl-2H-pyrazolo[4,3-b]pyridin-7-amine] | 1260 | 1260
Cc1ccc(F)c(-c2cc(Nc3ccnc4cnn(CCO)c34)c(C)cn2)n1 [Example 10, 2-(7-(3′-fluoro-5,6′-dimethyl-2,2′-bipyridin-4-ylamino)-1H-pyrazolo[4,3-b]pyridin-1-yl)ethanol] | 10 | 20
Cc1ccc(F)c(-c2cc(Nc3ccnc4cnn(C[C@H](C)O)c34)ccn2)n1 [Example 106, (S)-1-(7-(3′-fluoro-6′-methyl-2,2′-bipyridin-4-ylamino)-1H-pyrazolo[4,3-b]pyridin-1-yl)propan-2-ol] | 126 | 1260
OC[C@H](O)Cn1cc2nccc(Nc3ccnc(-c4cc(Cl)ccc4F)c3)c2n1 [Example 46, (R)-3-(7-(2-(5-chloro-2-fluorophenyl)pyridin-4-ylamino)-2H-pyrazolo[4,3-b]pyridin-2-yl)propane-1,2-diol] | 63.1 | 316
CCNC(=O)Cn1cc2nccc(Nc3cc(-c4cc(F)ccc4F)ncc3C)c2n1 [Example 156, 2-(7-(2-(2,5-difluorophenyl)-5-methylpyridin-4-ylamino)-2H-pyrazolo[4,3-b]pyridin-2-yl)-N-ethylacetamide] | 3.16 | 126
NC(=O)Cn1cc2nccc(Nc3ccnc(-c4cc(Cl)ccc4F)c3)c2n1 [Example 43, 2-(7-(2-(5-chloro-2-fluorophenyl)pyridin-4-ylamino)-2H-pyrazolo[4,3-b]pyridin-2-yl)acetamide] | 7.94 | 100
Cc1cnc(-c2cc(F)ccc2F)cc1Nc1ccnc2cn(CC(C)O)nc12 (stereo not shown) [Example 143, 1-(7-(2-(2,5-difluorophenyl)-5-methylpyridin-4-ylamino)-2H-pyrazolo[4,3-b]pyridin-2-yl)propan-2-ol] | 20 | 126
Cc1ccc(F)c(-c2cc(Nc3ccnc4cnn(CC5CC5)c34)ccn2)n1 [Example 89, 1-(cyclopropylmethyl)-N-(3′-fluoro-6′-methyl-2,2′-bipyridin-4-yl)-1H-pyrazolo[4,3-b]pyridin-7-amine] | 25.1 | 200
Cc1ccc(F)c(-c2cc(Nc3c(F)cnc4cn(CCO)nc34)c(C)cn2)n1 [Example 91, 2-(6-fluoro-7-(3′-fluoro-5,6′-dimethyl-2,2′-bipyridin-4-ylamino)-2H-pyrazolo[4,3-b]pyridin-2-yl)ethanol] | 20 | 158
Cc1ccc(F)c(-c2cc(Nc3ccnc4cnn(CC(=O)NC5CC5)c34)c(C)cn2)n1 [Example 117, N-cyclopropyl-2-(7-(3′-fluoro-5,6′-dimethyl-2,2′-bipyridin-4-ylamino)-1H-pyrazolo[4,3-b]pyridin-1-yl)acetamide] | 10 | 126
CCNC(=O)n1ncc2nccc(Nc3cc(-c4cc(Cl)ccc4F)ncc3C)c21 [Example 53, 7-(2-(5-chloro-2-fluorophenyl)-5-methylpyridin-4-ylamino)-N-ethyl-1H-pyrazolo[4,3-b]pyridine-1-carboxamide] | 31.6 | 50.1
CCn1ncc2ncc(F)c(Nc3cc(-c4nc(C)ccc4F)ncc3C)c21 [Example 139, 1-ethyl-6-fluoro-N-(3′-fluoro-5,6′-dimethyl-2,2′-bipyridin-4-yl)-1H-pyrazolo[4,3-b]pyridin-7-amine] | 25.1 | 126
CNC(=O)Cn1ncc2nccc(Nc3cc(-c4nc(C)ccc4F)ncc3C)c21 [Example 145, 2-(7-(3′-fluoro-5,6′-dimethyl-2,2′-bipyridin-4-ylamino)-1H-pyrazolo[4,3-b]pyridin-1-yl)-N-methylacetamide] | 15.8 | 126
Fc1ccc(Cl)cc1-c1cc(Nc2ccnc3cnn(CC4CC4)c23)ccn1 [Example 36, N-(2-(5-chloro-2-fluorophenyl)pyridin-4-yl)-1-(cyclopropylmethyl)-1H-pyrazolo[4,3-b]pyridin-7-amine] | 631 | 631
Cc1cnc(-c2cc(Cl)ccc2F)cc1Nc1ccnc2cn[nH]c12 [Example 49, N-(2-(5-chloro-2-fluorophenyl)-5-methylpyridin-4-yl)-1H-pyrazolo[4,3-b]pyridin-7-amine] | 31.6 | 31.6
CNC(=O)Cn1cc2nccc(Nc3ccnc(-c4nc(C)ccc4F)c3)c2n1 [Example 111, 2-(7-(3′-fluoro-6′-methyl-2,2′-bipyridin-4-ylamino)-2H-pyrazolo[4,3-b]pyridin-2-yl)-N-methylacetamide] | 501 | 12600
CCn1ncc2nccc(Nc3cc(-c4nc(C)ccc4F)ncc3C)c21 [Example 134, 1-ethyl-N-(3′-fluoro-5,6′-dimethyl-2,2′-bipyridin-4-yl)-1H-pyrazolo[4,3-b]pyridin-7-amine] | 2 | 50.1
Cc1ccc(F)c(-c2cc(Nc3ccnc4cn(CCF)nc34)ccn2)n1 [Example 102, N-(3′-fluoro-6′-methyl-2,2′-bipyridin-4-yl)-2-(2-fluoroethyl)-2H-pyrazolo[4,3-b]pyridin-7-amine] | 15.8 | 50.1
COCCn1ncc2nccc(Nc3ccnc(-c4nc(C)ccc4F)c3)c21 [Example 73, N-(3′-fluoro-6′-methyl-2,2′-bipyridin-4-yl)-1-(2-methoxyethyl)-1H-pyrazolo[4,3-b]pyridin-7-amine] | 15.8 | 63.1
CNC(=O)n1ncc2nccc(Nc3cc(-c4cccc(C)n4)ncc3C)c21 [Example 81, 7-(5,6′-dimethyl-2,2′-bipyridin-4-ylamino)-N-methyl-1H-pyrazolo[4,3-b]pyridine-1-carboxamide] | 63.1 | 126
CNC(=O)Cn1ncc2ncc(F)c(Nc3cc(-c4nc(C)ccc4F)ncc3C)c21 [Example 148, 2-(6-fluoro-7-(3′-fluoro-5,6′-dimethyl-2,2′-bipyridin-4-ylamino)-1H-pyrazolo[4,3-b]pyridin-1-yl)-N-methylacetamide] | 200 | 1000
